For one assay, the system named is MDA-MB-231. Kind of assay: Antiproliferative activity against human MDA-MB-231 cells assessed as reduction in cell viability by MTT assay. It counts as functional, cell-based. (Formazan colour is commonly taken as a measure of viable cells.)
For assay [1], the system named is A498. Kind of assay: Antiproliferative activity against human A498 cells assessed as reduction in cell viability by MTT assay. In kind it is functional, cell-based.
Assay [2] concerns HeLa. In words: Antiproliferative activity against human HeLa cells assessed as reduction in cell viability by MTT assay. In kind it is functional, cell-based.
A further assay relates to A2780. Kind of assay: Antitumor activity against human A2780 cells. In kind it is functional, cell-based.
A further assay relates to SMMC-7721. In words: Antitumor activity against human […] cells. It counts as functional, cell-based.
In the next assay the test system is PANC-1. Kind of assay: Antitumor activity against human PANC-1 cells. It counts as functional, cell-based.
Assay [3] has as its system A498. Kind of assay: Anti-angiogenesis activity against human A498 cells xenografted in chicken embryo chorioallantoic membrane assessed as CAM blood vessel growth at 1 uM. In kind it is functional. For orientation: A xenograft is tissue or cells of one species grown in another, often human tumour cells in immunodeficient mice.
Assay [4] concerns A498. Kind of assay: Antitumor activity against human A498 cells xenografted in chicken embryo chorioallantoic membrane assessed as decrease in tumor weight. The note with it: dose 1-4 µM. It counts as functional, cell-based.
For assay [5], the system named is A498. Kind of assay: Inhibition of cell invasion in human A498 cells assessed as decrease in cell density invading the bottom surface of the membrane at 2 uM by Transwell assay. In kind it is functional, cell-based.
The subject of assay [6] is A498. Kind of assay: Anti-angiogenesis activity against human A498 cells xenografted in chicken embryo chorioallantoic membrane assessed as CAM blood vessel growth at 2 uM. It counts as functional.
For assay [7], the system named is A498. Kind of assay: Anti-angiogenesis activity against human A498 cells xenografted in chicken embryo chorioallantoic membrane assessed as CAM blood vessel growth at 4 uM. In kind it is functional.
The test system of assay [8] is A498. Kind of assay: Antitumor activity against human A498 cells xenografted in chicken embryo chorioallantoic membrane assessed as decrease in tumor weight at 4 uM. In kind it is functional, cell-based.
Assay [9] concerns A498. In words: Inhibition of colony formation in human A498 cells assessed as proliferative capacity at 4 uM. It counts as functional. Set-up: scale not given: the % may be the effect or the level left.
Assay [10] has as its system A498. In words: Inhibition of cell invasion in human A498 cells assessed as decrease in cell density invading the bottom surface of the membrane by Transwell assay. It counts as functional, cell-based. The note with it: dose 1-4 µM.
The test system of assay [11] is A498. In words: Inhibition of colony formation in human A498 cells assessed as proliferative capacity at 1 uM. In kind it is functional. Also noted: scale not given: the % may be the effect or the level left.
For assay [12], the system named is A498. Kind of assay: Inhibition of cell adhesion in human A498 cells. In kind it is functional, cell-based. The note with it: dose 1-4 µM.
Assay [13] relates to A498. Kind of assay: Inhibition of colony formation in human A498 cells assessed as proliferative capacity at 2 uM. In kind it is functional. Set-up: scale not given: the % may be the effect or the level left.
The test system of assay [14] is A498. In words: Inhibition of cell adhesion in human A498 cells at 4 uM. It counts as functional, cell-based.
A further assay concerns NCI-H460. Kind of assay: Antiproliferative activity against human NCI-H460 cells assessed as inhibition of cell growth. In kind it is functional, cell-based.
For assay [15], the system named is HeLa. Kind of assay: Antiproliferative activity against human HeLa cells assessed as inhibition of cell growth. In kind it is functional, cell-based.

The term IC50 denotes the midpoint of a concentration-inhibition curve.

As for `COc1ccc(CN(C(=O)CCC(=O)Nc2cccc(C)c2)c2cc(OC)c(OC)c(OC)c2)cc1`, the IC50 in the assay on MDA-MB-231 turned out to be 16.6 µM; with A498 [1] it was 8.85 µM; in the assay on HeLa [2], 19.2 µM.

Regarding `COc1ccc(CN(C(=O)CCC(=O)Nc2ccc(Cl)cc2)c2cc(OC)c(OC)c(OC)c2)cc1`, the IC50 in the assay with MDA-MB-231 was found to be 22.5 µM; in the assay with A498 [1], 11.5 µM; in the assay on HeLa [2], 13.8 µM.

As to `COc1ccc(CN(C(=O)C(=O)Nc2ccc(C)cc2)c2cc(OC)c(OC)c(OC)c2)cc1`, the IC50 in the assay with MDA-MB-231 was 55.9 µM.

Consider `COc1ccc(CCc2cc(OC)c(OC)c(OC)c2)cc1O`, for which the IC50 came to 0.42 µM in the assay on A2780, 0.29 µM in the assay with SMMC-7721 and 0.45 µM in the assay on PANC-1.

`COc1ccc(CN(C(=O)CCC(=O)Nc2ccc(F)cc2)c2cc(OC)c(OC)c(OC)c2)cc1`: the results for the IC50 in the assay with MDA-MB-231, with A498 [1] and with HeLa [2] were 24 µM, 4.06 µM and 2.39 µM, respectively.

In the case of `COc1ccc(CN(C(=O)CCC(=O)Nc2cccc(Cl)c2)c2cc(OC)c(OC)c(OC)c2)cc1`, the IC50 in the assay with MDA-MB-231 was 48.3 µM; in the assay with A498 [1], 10.7 µM; in the assay with HeLa [2], 20.4 µM.

For `COc1ccc(CN(C(=O)CCC(=O)Nc2ccc(OC)cc2)c2cc(OC)c(OC)c(OC)c2)cc1`, the Activity is 82.4% in the assay with A498 [3]; “Dose-dependent-effect” in the assay with A498 [4]; 66.22% in the assay with A498 [6]; 42.04% in the assay on A498 [7]; “Active; Better Activity Compared To Positive Control, Paclitaxel And Colchicine” in the assay with A498 [8]; 11.16% in the assay with A498 [9]. In addition, the values for the Activity in the assay with A498 [11] and with A498 [13] were 66.94% and 26.03%, respectively. Besides, the inhibition result is “Active; Better Activity Compared To 4 Um Positive Control, Paclitaxel And Colchicine” with A498 [5]; “Dose-dependent-effect” in the assay on A498 [10]; “Dose-dependent-effect” in the assay with A498 [12]; “Active; Better Activity Compared To Positive Control, Paclitaxel And Colchicine” with A498 [14]. The IC50 with MDA-MB-231 turned out to be 31.5 µM; in the assay with A498 [1] it was 1.94 µM; in the assay on HeLa [2] it was 8.24 µM.

On to `COc1ccc(CN(C(=O)CCC(=O)Nc2cccc(OC)c2)c2cc(OC)c(OC)c(OC)c2)cc1`, for which the IC50 turned out to be 21.4 µM in the assay with MDA-MB-231, 8.27 µM in the assay with A498 [1] and 12 µM with HeLa [2].

With `COc1ccc(CN(C(=O)CCC(=O)Nc2ccc(C(F)(F)F)cc2)c2cc(OC)c(OC)c(OC)c2)cc1`, the IC50 in the assay with MDA-MB-231 was more than 100 µM; in the assay on A498 [1], more than 100 µM; in the assay with HeLa [2], 4.65 µM.

With `COc1ccc(CN(C(=O)CCC(=O)Nc2ccccc2Cl)c2cc(OC)c(OC)c(OC)c2)cc1`, the IC50 in the assay with MDA-MB-231 was found to be 73 µM; in the assay on A498 [1] it was 5.58 µM; with HeLa [2], 41.9 µM.

With `COc1ccc(N(C)c2nc(C)nc3ccccc23)cc1NC(=O)CCC(=O)NO`, the figures for the IC50 in the assay with NCI-H460 and in the assay on HeLa [15] were 1.05 µM and 2.41 µM, respectively.

On to `COc1ccc(CN(C(=O)CCC(=O)Nc2ccccc2)c2cc(OC)c(OC)c(OC)c2)cc1`, for which the IC50 is 16.1 µM with MDA-MB-231, 2.11 µM in the assay with A498 [1] and 16 µM with HeLa [2].

Consider `COc1ccc(CN(C(=O)CCC(=O)Nc2ccc(O)cc2)c2cc(OC)c(OC)c(OC)c2)cc1`, for which the IC50 in the assay on MDA-MB-231 was found to be 23.5 µM; in the assay on A498 [1], 3.23 µM; with HeLa [2], 11.8 µM.

With `COc1ccc(CN(C(=O)CCC(=O)Nc2cccc(F)c2)c2cc(OC)c(OC)c(OC)c2)cc1`, the IC50 in the assay on MDA-MB-231 was found to be 56.2 µM; in the assay with A498 [1], 11.9 µM; in the assay on HeLa [2] it was 39.8 µM.

Regarding `COc1cc2c(c(OC)c1OC)-c1ccc(OC)c(=O)cc1[C@@H](NC(C)=O)CC2` [COLCHICINE], the concentration for half-maximal inhibition (IC50) in the assay with MDA-MB-231 was more than 100 µM; in the assay with A498 [1] it was 7.17 µM; with HeLa [2], 32.7 µM.

Take `COc1ccc(CN(C(=O)C(=O)Nc2ccc(Cl)cc2)c2cc(OC)c(OC)c(OC)c2)cc1`: the IC50 with MDA-MB-231 came out at 40.7 µM.

As to `CC(=O)O[C@H]1C(=O)[C@@]2(C)[C@H]([C@H](OC(=O)c3ccccc3)[C@]3(O)C[C@H](OC(=O)[C@H](O)[C@@H](NC(=O)c4ccccc4)c4ccccc4)C(C)=C1C3(C)C)[C@]1(OC(C)=O)CO[C@@H]1C[C@@H]2O` [PACLITAXEL], the figures for the IC50 in the assay on MDA-MB-231 and with HeLa [2] were 31.4 µM and 21.3 µM, respectively.

Take `COc1ccc(CN(C(=O)CCC(=O)Nc2ccc(Br)cc2)c2cc(OC)c(OC)c(OC)c2)cc1`: the IC50 in the assay with MDA-MB-231 stood at 58.6 µM; in the assay with A498 [1], 5.4 µM; with HeLa [2], 20.8 µM.

`COc1ccc(CN(C(=O)CCC(=O)Nc2ccccc2OC)c2cc(OC)c(OC)c(OC)c2)cc1`: the values for the IC50 in the assay with MDA-MB-231, in the assay on A498 [1] and in the assay on HeLa [2] were 74.4 µM, 5.81 µM and 48.3 µM, respectively.

For the compound `COc1ccc(CN(C(=O)CCC(=O)Nc2cc(OC)c(OC)c(OC)c2)c2cc(OC)c(OC)c(OC)c2)cc1`, the IC50 in the assay on MDA-MB-231 was more than 100 µM; with A498 [1], more than 100 µM; with HeLa [2], 57.5 µM.

Consider `COc1ccc(CN(C(=O)CCC(=O)Nc2ccc(C)cc2)c2cc(OC)c(OC)c(OC)c2)cc1`, for which the IC50 with MDA-MB-231 is 8.08 µM; with A498 [1], 5.34 µM; in the assay on HeLa [2] it was more than 100 µM.

(Values after ChEMBL document CHEMBL6074647, “Design, synthesis and antitumor activity of novel 4-oxobutanamide derivatives” (Bioorg Med Chem Lett, 2024).)
